In brackets after ≈: the same amount, converted by molar mass. Counter-ions that a name gives are not always drawn.
Key:
Candida albicans = assay: microbe, parasite or virus in culture; conditions: ATCC 90028, ASSAY_TEST Inhibition of Fungal Growth, detection method Absorption (OD530), plate type 384well, NBS, CORNING #3640
Description: Antifungal activity against Candida albicans ATCC 90028 (CO-ADD:FG_001); MIC in YNB media using NBS plates, by OD630

Escherichia coli = assay: microbe, parasite or virus in culture; conditions: ATCC 25922, 18 h, ASSAY_TEST Inhibition of Bacterial Growth, detection method Absorption (OD600), MEDIA CAMHB, plate type 384well, NBS, CORNING #3640
Description: Antibacterial activity against Escherichia coli ATCC 25922 (CO-ADD:GN_001); MIC in CAMBH media using NBS plates, by OD(600)

Acinetobacter baumannii = assay: microbe, parasite or virus in culture; conditions: ATCC 19606, 18 h, ASSAY_TEST Inhibition of Bacterial Growth, detection method Absorption (OD600), MEDIA CAMHB, plate type 384well, NBS, CORNING #3640
Description: Antibacterial activity against Acinetobacter baumannii ATCC 19606 (CO-ADD:GN_034); MIC in CAMBH media using NBS plates, by OD600

Pseudomonas aeruginosa [1] = assay: Antibacterial activity against Pseudomonas aeruginosa PAO397 [PAO1 d(mexAB-oprM) d(mexCD-oprJ) d(mexEF-oprN) d(mexJKL) d(mexXY) d(opmH)] (CO-ADD:GN_211); MIC in CAMBH media using NBS plates, by OD(600); assay type: functional; conditions: ASSAY_TEST Inhibition of Bacterial Growth, detection method Absorption (OD600), MEDIA CAMHB, plate type 384well, CORNING #3640, time 18 hr
Klebsiella pneumoniae = assay: microbe, parasite or virus in culture; conditions: ATCC 700603, 18 h, ASSAY_TEST Inhibition of Bacterial Growth, detection method Absorption (OD600), MEDIA CAMHB, plate type 384well, NBS, CORNING #3640
Description: Antibacterial activity against Klebsiella pneumoniae MDR ATCC 70063 (CO-ADD:GN_003); MIC in CAMBH media using NBS plates, by OD(600)

Pseudomonas aeruginosa [2] = assay: microbe, parasite or virus in culture; conditions: ATCC 27853, 18 h, ASSAY_TEST Inhibition of Bacterial Growth, detection method Absorption (OD600), MEDIA CAMHB, plate type 384well, NBS, CORNING #3640
Description: Antibacterial activity against Pseudomonas aeruginosa ATCC 27853 (CO-ADD:GN_042); MIC in CAMBH media using NBS plates, by OD(600)

Staphylococcus aureus = assay: microbe, parasite or virus in culture; conditions: ATCC 43300, 18 h, ASSAY_TEST Inhibition of Bacterial Growth, detection method Absorption (OD600), MEDIA CAMHB, plate type 384well, NBS, CORNING #3640
Description: Antibacterial activity against Staphylococcus aureus MRSA ATCC 43300 (CO-ADD:GP_020); MIC in CAMBH media, using NBS plates, by OD(600)

HEK293 = assay: cells; assay type: functional, Homo sapiens, ATCC CRL1573; conditions: Homo sapiens, ATCC CRL1573, HEK293; ASSAY_TEST Inhibition of Cell Viability; detection method Resazurin; Fluorescence (ex560/em590); MEDIA DMEM with 10% FBS; plate type 384well; TC; CORNING #3712; time 18 hr; read-out: CC50

Description for Cryptococcus neoformans: Antifungal activity against Cryptococcus neoformans H99 ATCC 208821 (CO-ADD:FG_002); MIC in YNB media using NBS plates, by Resazurin OD(600-570)

MIC (Candida albicans) [µM] | MIC (Escherichia coli) [µM] | MIC (Cryptococcus neoformans) [µM] | MIC (Acinetobacter baumannii) [µM] | MIC (Pseudomonas aeruginosa [1]) [µM] | MIC (Klebsiella pneumoniae) [µM] | MIC (Pseudomonas aeruginosa [2]) [µM] | MIC (Staphylococcus aureus) [µM] | Structure (SMILES) | CC50 (HEK293) [µM]
> 20 | > 20 | > 20 | > 20 | > 20 | > 20 | > 20 | > 20 | CCOc1noc2cc(OCCC3CCN(c4ccc(C)nn4)CC3)ccc12 | > 20
> 20 | > 20 | > 20 | > 20 | > 20 | > 20 | > 20 | > 20 | Clc1cccc(-c2nnc(-c3ccccc3)o2)c1 | > 20
> 20 | > 20 | > 20 | > 20 | 20 (≈ 8.81 µg/mL) | > 20 | > 20 | > 20 | NC(=O)C(c1ccccc1)(c1ccccc1)[C@H]1CCCN(CCc2ccc3c(c2)CCO3)C1 | > 20
> 20 | > 20 | > 20 | > 20 | > 20 | > 20 | > 20 | > 20 | Nc1cc(N)c2nc(-c3ccccc3)c(Nc3ccc(F)cc3)nc2c1 | 1.91
> 20 | > 20 | > 20 | > 20 | > 20 | > 20 | > 20 | > 20 | O=C(O)c1cc(-c2ccccc2)nc2ccccc12 [CINCHOPHEN] | > 20
> 20 | > 20 | > 20 | > 20 | > 20 | > 20 | > 20 | > 20 | COc1ccc(NC(=O)c2cc3ccccn3n2)cc1 | > 20
> 20 | > 20 | > 20 | > 20 | > 20 | > 20 | > 20 | > 20 | Nc1nc(N)c2c(Sc3ccccc3)cccc2n1 | 10.8
> 20 | > 20 | > 20 | > 20 | > 20 | > 20 | > 20 | > 20 | CCOC(=O)Nc1cc(NC(C)CC(C)CN(CC)CC)c2nc(-c3ccccc3)c(-c3ccccc3)nc2n1 (configuration not stated) | > 20
> 20 | > 20 | > 20 | > 20 | > 20 | > 20 | > 20 | > 20 | O=C(Nc1ccc(F)cc1)c1nn(-c2ccccc2)c(=O)cc1Cl | 8.2
> 20 | > 20 | > 20 | > 20 | > 20 | > 20 | > 20 | > 20 | c1ccc(-c2nnc3c4ccccc4c(N4CCNCC4)nn23)cc1 | 14.2

More lines, now with the values behind:

Structure (SMILES) | MIC (Candida albicans) [µM] | MIC (Escherichia coli) [µM] | MIC (Cryptococcus neoformans) [µM] | MIC (Acinetobacter baumannii) [µM] | MIC (Pseudomonas aeruginosa [1]) [µM] | MIC (Klebsiella pneumoniae) [µM] | MIC (Pseudomonas aeruginosa [2]) [µM] | MIC (Staphylococcus aureus) [µM] | CC50 (HEK293) [µM]
CCCNc1ccc(S(=O)(=O)Nc2cc(C)on2)cc1 | > 20 | > 20 | > 20 | > 20 | > 20 | > 20 | > 20 | > 20 | > 20
CN(C)c1[nH]c(=O)ncc1F | > 20 | > 20 | > 20 | > 20 | > 20 | > 20 | > 20 | > 20 | > 20
C[C@H]1CC[C@]2(NC1)O[C@H]1C[C@H]3[C@@H]4CC[C@H]5C[C@@H](O)CC[C@]5(C)[C@H]4CC[C@]3(C)[C@H]1[C@@H]2C | 20 (≈ 8.31 µg/mL) | > 20 | > 20 | > 20 | > 20 | > 20 | > 20 | > 20 | > 20
CCOC(=O)N[C@@H]1CC[C@@H]2[C@@H](C1)C[C@H]1C(=O)O[C@H](C)[C@H]1[C@H]2/C=C/c1ccc(-c2cccc(F)c2)cn1 [VORAPAXAR] | > 20 | > 20 | > 20 | > 20 | > 20 | > 20 | > 20 | > 20 | > 20
CC(C)CCN1C(=O)C(C2=NS(=O)(=O)c3cc(NS(C)(=O)=O)ccc3N2)=C(O)[C@@H]2[C@H]3CC[C@H](C3)[C@@H]21 | > 20 | > 20 | > 20 | > 20 | > 20 | > 20 | > 20 | > 20 | > 20
Cc1oncc1C(=O)Nc1ccc(C(F)(F)F)cc1 [LEFLUNOMIDE] | > 20 | > 20 | > 20 | > 20 | > 20 | > 20 | > 20 | > 20 | > 20
COc1cc(C)c2c(Oc3cccc(C(F)(F)F)c3)c(OC)cc(NC(C)CCCN)c2n1 (configuration not stated) [TAFENOQUINE SUCCINATE] | > 20 | > 20 | > 20 | > 20 | > 20 | > 20 | > 20 | 10 | 6.36
COc1cc(NCc2ccc3nc(N)nc(N)c3c2C)cc(OC)c1OC [TRIMETREXATE] | > 20 | 10 (≈ 3.69 µg/mL) | > 20 | > 20 | 0.625 (≈ 0.231 µg/mL) | > 20 | 5 (≈ 1.85 µg/mL) | 1.25 (≈ 0.462 µg/mL) | > 20
CC(C)Oc1cccc(NC(=O)c2ccccc2C(F)(F)F)c1 [FLUTOLANIL] | > 20 | > 20 | > 20 | > 20 | > 20 | > 20 | > 20 | > 20 | > 20
COc1ccc(C[C@@H](C)[C@@H](C)Cc2ccc(OC)c(OC)c2)cc1OC [TERAMEPROCOL] | > 20 | > 20 | > 20 | > 20 | > 20 | > 20 | > 20 | > 20 | > 20
C[C@@H](NC(=O)c1cccc(-c2cnc(-c3cc4ccccc4cn3)[nH]2)c1)c1ccc(F)cc1 | > 20 | > 20 | > 20 | > 20 | > 20 | > 20 | > 20 | > 20 | 10.8
CCCC1(C2CC2)c2cc(Cl)ccc2NC(=O)N1C (configuration not stated) | > 20 | > 20 | > 20 | > 20 | > 20 | > 20 | > 20 | > 20 | > 20
CN(Cc1ccc(C(C)(C)C)cc1)Cc1cccc2ccccc12 [BUTENAFINE HYDROCHLORIDE] | > 20 | > 20 | 5 | > 20 | > 20 | > 20 | > 20 | > 20 | > 20
CC1CCc2c(N3CCC(O)CC3)c(F)cc3c(=O)c(C(=O)O)cn1c23 (configuration not stated) [NADIFLOXACIN] | > 20 | 0.625 (≈ 0.225 µg/mL) | > 20 | 20 (≈ 7.21 µg/mL) | ≤ 0.156 | 20 (≈ 7.21 µg/mL) | 1.25 (≈ 0.45 µg/mL) | ≤ 0.156 | > 20
CC(C)Oc1ccc(-c2nc(-c3cccc4c3CC[C@@H]4NCCO)no2)cc1C#N [OZANIMOD] | > 20 | > 20 | > 20 | > 20 | > 20 | > 20 | > 20 | > 20 | > 20
OB1OCc2cc(Cl)ccc21 [AN-2718] | 5 (≈ 0.842 µg/mL) | > 20 | > 20 | > 20 | > 20 | > 20 | > 20 | > 20 | > 20
Cn1cc(NC(=O)c2cc(NC(=O)c3ccc(/C=C/c4cnc5ccccc5c4)cc3)cn2C)cc1C(=O)NCCN1CCOCC1 [MGB-BP-3] | > 20 | > 20 | > 20 | > 20 | > 20 | > 20 | > 20 | 1.25 (≈ 0.79 µg/mL) | 1.71
CCCCCCC1c2ccc(O)cc2Oc2cc(O)ccc21 | > 20 | > 20 | > 20 | > 20 | > 20 | > 20 | > 20 | > 20 | > 20
